In brackets after ≈: the same amount, converted by molar mass. Several values for one entry are separate records, joined by “and”; a condition that tells them apart may be missing. Equal entries are not always repeated. Where two headings read alike, the source gives them in different places.
How the values were obtained:
HepG2 = conditions: 48 h; for Growth compared to DMSO control (%): HepG2 cell
M. africanum = test: MIC screening against M. africanum; assay type: cell-based; conditions: Mycobacterium tuberculosis, MTBC
M. bovis 0AF2122 = test: microbe, parasite or virus in culture; assay type: cell-based; conditions: Mycobacterium tuberculosis variant bovis
[1] = p.o. 25 mg/kg, CD-1 mice
Mtb H37Rv [2] = assay type: in vivo, BALB/c mice; conditions: for spleen CFU: Day 42, standard acute model, BALB/c, per mouse
WT H37Rv [3] = test: Agar MIC of C48; assay type: cell-based; conditions: Mycobacterium tuberculosis, 504 h
[4] = p.o.; for C48 in Plasma / C48 in lung: CD-1 mice
WT H37Rv [5] = test: Time-kill kinetics in GAST medium; assay type: cell-based, Mycobacterium tuberculosis; conditions: for OD580 of C48 kill kinetics: 10µM C48, GAST medium
Mtb H37Rv [6] = test: Supplementation experiments in Mtb (KAPA, DAPA, DTB, biotin); assay type: cell-based, Mycobacterium tuberculosis

SMILES: O=C1CCc2cc(N3CCN(C(=O)c4ccc(F)c(Br)c4)CC3)ncc21 [C48]
- Growth compared to DMSO control (%) (HepG2; 50 μM): 106.056% and 100.625% and 106.559%
- Growth compared to DMSO control (%) (HepG2; 100 μM): 110.419% and 100.81% and 101.702%
- cytotoxicity toward HepG2 (HepG2; concentrations up to 100 μM): no cytotoxicity
- MIC (M. africanum): 0.012 µM (≈ 5.02 ng/mL)
- MIC (M. bovis 0AF2122): 0.0313 µM (≈ 13.1 ng/mL)
- plasma concentration ([1]; 0 h): 0
- plasma concentration ([1]; 0.5 h, 25 mg/kg): 10400 and 11300 and 10800
- plasma concentration ([1]; 1 h, 25 mg/kg): 15700 and 11100 and 13300
- plasma concentration ([1]; 3 h, 25 mg/kg): 12000 and 11100 and 12600
- plasma concentration ([1]; 5 h, 25 mg/kg): 14500 and 12000 and 8860
- plasma concentration ([1]; 7 h, 25 mg/kg): 9480 and 6360 and 8380
- spleen CFU (Mtb H37Rv [2]; 100mg/kg C48 p.o.): 1075 CFU and 3750 CFU and 6400 CFU and 18666.7 CFU and 6650 CFU and 6725 CFU
- bacterial burden per mouse, Fig. 5B (Mtb H37Rv [2]; 100 mg/kg, day 14 (values identical to Vehicle Control: baseline)): 16500 and 43500 and 12750 and 24500 and 14500
- bacterial burden per mouse, Fig. 5B (Mtb H37Rv [2]; 100 mg/kg, day 28): 170000
- bacterial burden per mouse, Fig. 5B (Mtb H37Rv [2]; 100 mg/kg, day 42): 325000 and 425000 and 1800000 and 566667 and 170000 and 673000
- spleen CFU (Mtb H37Rv [2]; 200mg/kg C48 p.o.): 7225 CFU and 14500 CFU and 8975 CFU and 12750 CFU and 18750 CFU and 7075 CFU
- bacterial burden per mouse, Fig. 5B (Mtb H37Rv [2]; 200 mg/kg, day 14 (values identical to Vehicle Control: baseline)): 16500 and 43500 and 12750 and 24500 and 14500
- bacterial burden per mouse, Fig. 5B (Mtb H37Rv [2]; 200 mg/kg, day 42): 552500 and 365000 and 477500 and 437500 and 560000 and 517500
- efficacy in the conventional mouse model of TB (Mtb H37Rv [2]; 100 and 200 mg/kg p.o.): failed to show efficacy
- MIC (WT H37Rv [3]): 0.8 µM
- delivery into the lungs [4]: efficiently delivered into the lungs
- C48 in Plasma ([4]; 0 hr): 0 ng/mL
- C48 in lung ([4]; 0 hr): 0 ng/mL
- C48 in Plasma ([4]; 1 hr): 17400 ng/mL and 12000 ng/mL and 17900 ng/mL
- C48 in lung ([4]; 1 hr): 11264.6 ng/mL and 8012.8 ng/mL and 9904.4 ng/mL
- C48 in Plasma ([4]; 3 hr): 7710 ng/mL and 11800 ng/mL and 12100 ng/mL
- C48 in lung ([4]; 3 hr): 3273.1 ng/mL and 5600.4 ng/mL and 5866.1 ng/mL
- rate of CFU decline (WT H37Rv [5]; 10 μM, biotin-free medium, after about three doublings): one log10 CFU per week
- OD580 of C48 kill kinetics (WT H37Rv [5]; day 0): 0.001
- OD580 of C48 kill kinetics (WT H37Rv [5]; day 2): 0.004
- OD580 of C48 kill kinetics (WT H37Rv [5]; day 4): 0.008
- OD580 of C48 kill kinetics (WT H37Rv [5]; day 8): 0.01
- OD580 of C48 kill kinetics (WT H37Rv [5]; day 11): 0.016
- OD580 of C48 kill kinetics (WT H37Rv [5]; day 14): 0.012
- OD580 of C48 kill kinetics (WT H37Rv [5]; day 16): 0.012
- OD580 of C48 kill kinetics (WT H37Rv [5]; day 18): 0.012
- OD580 of C48 kill kinetics (WT H37Rv [5]; day 21): 0.01
- OD580 of C48 kill kinetics (WT H37Rv [5]; day 23): 0.01
- OD580 of C48 kill kinetics (WT H37Rv [5]; day 25): 0.01
- OD580 of C48 kill kinetics (WT H37Rv [5]; day 28): 0.008
- OD580 of C48 kill kinetics (WT H37Rv [5]; day 32): 0.008
- OD580 of C48 kill kinetics (WT H37Rv [5]; day 35): 0.008
- OD580 of C48 kill kinetics (WT H37Rv [5]; day 39): 0.008
- OD580 of C48 kill kinetics (WT H37Rv [5]; day 42): 0.008
- OD580 of C48 kill kinetics (WT H37Rv [5]; day 46): 0.008
- OD580 of C48 kill kinetics (WT H37Rv [5]; day 49): 0.008
- OD580 of C48 kill kinetics (WT H37Rv [5]; day 53): 0.008
- OD580 of C48 kill kinetics (WT H37Rv [5]; day 56): 0.008
- OD580 of C48 kill kinetics (WT H37Rv [5]; day 60): 0.008
- OD580 of C48 kill kinetics (WT H37Rv [5]; day 63): 0.008
- OD580 of C48 kill kinetics (WT H37Rv [5]; day 67): 0.008
- activity against Mtb cultured with 40 nM biotin (Mtb H37Rv [6]; 40 nM biotin): minimal activity
- growth inhibitory effect with biotin supplementation (Mtb H37Rv [6]; 2 μM biotin, GAST): antagonized
- growth inhibitory effect with DAPA supplementation (Mtb H37Rv [6]; 50 μM DAPA, GAST): antagonized
- growth inhibitory effect with desthiobiotin (DTB) supplementation (Mtb H37Rv [6]; 50 μM DTB, GAST): antagonized
- growth inhibitory effect with KAPA supplementation (Mtb H37Rv [6]; 50 μM KAPA, GAST): not

Reference: paper doi:10.1101/2025.09.24.678246 (bioRxiv, 2025)
